Measurements as given in patent publication USRE46907E1, “Suppression of cancer growth and metastasis using nordihydroguaiaretic acid derivatives with metabolic modulators” (THE JOHNS HOPKINS UNIVERSITY, priority 2008, dated 2018).

Experiments:
67NR cells = experiment: TUNEL apoptosis assay in 67NR cells; type: cell-based, mouse; conditions: 48 hr after treatment, M4N 80 μM
Procedure: (§1) Cell Culture Either cell line 4T1 or 67NR was a gift from Dr. Miller (20). The cells were cultured in RPMI1640 medium supplemented with glucose (14 mM), pyruvate (1 mM), penicillin (100 units/ml), streptomycin (100 μg/ml), and fetal bovine serum (10%), buffered with 25 mM HEPES (pH 7.4). LNCaP human prostate cancer cell line was purchased from American Type Culture Collection (Manassas, Va.). The cell line was cultured in RPMI1640 medium supplemented with glucose (14 mM), pyruvate (1 mM), penicillin (100 units/ml), streptomycin (100 μg/ml), and fetal bovine serum (10%). Drugs were dissolved in dimethyl sulfoxide (DMSO) at a suitable concentration so that the final concentration of DMSO in the medium was less than 0.1%.
(§2) Apoptosis assay: Simple TLTNEL assay was conducted by using TUNEL apoptosis detection kit (Upstate, Temecula, Calif.) with some modification. For the evaluation of the effect of PKCδ wild type and dominant negative vectors on TUNEL-positive cell death, we first transfected 4T1 or 67NR cells with these vectors by effectene (Qiagen, Valencia, Calif.). Wild type PKCδ vector is constructed from wild type PKCδ gene and pEGFP (Promega, Madison, Wis.). Dominant negative PKCδ vector is constructed from PKCδ gene mutated at a 376th amino acid residue (threonine) and pEGFP (Promega, Madison, Wis.) This threonine residue is located in ATP-binding domain of protein kinase Cδ, and therefore essential for any kinase reaction of the protein so that this mutant protein supposedly function as dominant negative. As a control we used pEGFP-N3 vector was used. These vectors contain green fluorescent protein (GFP) gene to be used as a transfection marker. The vectors are kind gifts from Dr. Yuspa (National Institutes of Health, Bethesda, Md.) (88). Twenty four hours after transfection, the cells were treated with M4N, Rottlerin, or Ly294002. Then 24 hrs after this treatment with these reagents, the cells were fixed with 10% formaldehyde in phosphate buffered saline without calcium and magnesium (PBS (−)). The cells were then incubated with rabbit anti-GFP antibody (MBL International, Woburn, Mass.) followed by treatment with anti-rabbit IgG antibody conjugated with fluorescein (Promega, Madison, Wis.). TUNEL staining was conducted by using TUNEL apoptosis detection kit (Upstate, Temecula, Calif.) except for using Streptavidin-Alexa Fluor 568 (Molecular Probes, Eugene, Oreg.) instead of Avidine-Rhodamine contained in the kit. Cell death was evaluated by dividing the number of TUNEL-positive cells among the cells positive with anti-GFP staining by the number of these GFP-positive cells.

4T1 cells = experiment: MTT cell growth assay in 4T1 cells; type: cell-based, mouse
Procedure: as §1
MTT assay: Cells were incubated in PBS (−) supplemented with 5% fetal calf serum and 0.5 mg/ml MTT, 3-(4,5-Dimethylthiazol-2-yl)-2,5-diphenyltetrazolium bromide (Sigma, Saint Louis, Mo.) for 2 hrs. After the incubation, the cells were dissolved in dimethyl sulfoxide and the color of the solutions was measured by a spectrophotometer at wavelengths of 540 and 690 nm. The values correlated with viable cell numbers were obtained by subtracting the optical density at 690 nm from that, at 540 nm.

[1] = tested on: PDK-1/Akt pathway-related proteins; experiment: Western blotting of PDK-1/Akt pathway-related proteins in 4T1 cells; type: cell-based, mouse; conditions: 4T1, 5 hrs after treatment
Procedure: (§3) Western blotting: After cells had been grown in 25 mm^2 flasks and treated with reagents, the cells were washed with PBS (−) three times and suspended in RIP A buffer (150 mM NaCl, 50 mM Tris-HCl (pH 8,0), 0.1% SDS, 1% NP40, and 0.5% deoxycholate) supplemented with protease inhibitor cocktail (Calbiochem, San Diego, Calif.). The sample volumes were adjusted by the total protein amount. Protein assay was performed by Bio-Rad Protein Assay (Bio-Rad Laboratories, Inc. Hercules, Calif.). The samples were resolved by the standard SDS-polyacrylamide gel electrophoresis and transferred to nitrocellulose membrane (Amersham Biosciences, Bjorkgatan, Sweden). The membranes were blocked with skim milk, and incubated with primary antibodies at 4° C. overnight and then with secondary antibody conjugated with horse radish peroxidase at room temperature for 2 hrs. The signals were detected by western blot chemiluminescence reagent plus (New England Nuclear Life Science Products, Boston, Mass.).

caspase-9 = experiment: Western blotting of caspase-9 cleavage in 67NR cells; type: cell-based, mouse; conditions: 5 hrs, Rottlerin 5 μM, M4N 80 μM
Procedure: as §3

PKCδ [2] = experiment: Western blotting of total PKCδ and phosphor-PKCδ (Thr505) in 4T1 cells; type: cell-based, mouse; conditions: 4T1, 5 hrs; M4N 80 μM, Ro 5 μM, Ly 20 μM, Des 150 μM
Procedure: as §3, with “The” for “Western blotting: After cells had been grown in 25 mm^2 flasks and treated with reagents, the cells were washed with PBS (−) three times and suspended in RIP A buffer (150 mM NaCl, 50 mM Tris-HCl (pH 8,0), 0.1% SDS, 1% NP40, and 0.5% deoxycholate) supplemented with protease inhibitor cocktail (Calbiochem, San Diego, Calif.). The”

PKCδ [3] = experiment: Western blotting of total PKCδ and phosphor-PKCδ (Thr505) in 67NR cells; type: cell-based, mouse; conditions: 5 hrs, M4N 80 μM, Ro 5 μM, Ly 20 μM, Des 150 μM
Procedure: as §3, with “The” for “Western blotting: After cells had been grown in 25 mm^2 flasks and treated with reagents, the cells were washed with PBS (−) three times and suspended in RIP A buffer (150 mM NaCl, 50 mM Tris-HCl (pH 8,0), 0.1% SDS, 1% NP40, and 0.5% deoxycholate) supplemented with protease inhibitor cocktail (Calbiochem, San Diego, Calif.). The”

[4] = tested on: LNCaP human prostate cancer cells; type: cell-based; conditions: 28 hrs, M4N 80 μM, Ro 5 μM, Ly 20 μM
Procedure: as §1, §2

LNCaP tumors = experiment: Nude mice orthotropically implanted with LNCaP tumors, about eight times tumor volume, treatment from day 3; type: in vivo, mouse
Procedure: M4N and Rottlerin were dissolved into a solvent, CPE (25/30) solvent system supplied by Erimos Pharmaceutical, L.L.C. (Raleigh, N.C.) and injected into mice either intravenously or intraperitoneally, T-cell deficient male nude mice (nu/nu) were obtained from Charles River Laboratories (Wilmington, Mass.). M4N and Ly294002 were dissolved into a solvent, CPE (25/30) solvent system supplied by Erimos Pharmaceutical, L.L.C. (Raleigh, N.C.) and injected into mice intravenously.
Surgical orthotropic implantation of LNCaP tumors: LNCaP cells were grown as described above. Cells growing subconfluently were collected and resuspended into the tissue culture medium without fetal bovine serum and antibiotics. After counting the number of the cells, the cell concentration was adjusted using the same medium. After 20 μl of the medium containing a selected number of cancer cells (about 5×10^7 cells) had been mixed together with the same volume of Matrigel (BD science, Bedford, Mass.), the combined solution was injected into the skin of nude mice. […] The tumor tissue extracted from the skin was excised into pieces of about 2 mm diameter. After nude mice were anesthetized by 2,2,2-Tribromoethanol (Aldrich Chemical Co. Inc., Milwaukee, Wis.), a small incision was made at the abdomen of each mouse and a tumor tissue piece was implanted in the neighbor of the prostate of each mouse. Eight days after the operation, the injection of drugs was initiated, and the drugs were injected intravenously every day for the indicated periods
As in the previous experiment (FIGS. 9 to 13), in this study we administered M4N, Ly, Ro, Etoposide, or Rapamycin to mice intravenously using CPE (25/30) solvent system (87). […] However, in this experiment we implanted about eight times the volume of tumors as in the previous experiments to detect the difference of efficacy of various combination treatments much faster. We started to treat the mice with combination treatments three days after the implantation instead of eight days, considering that the tumor volume is already large at the time of implantation in this experiment. This allows less time for possible metastasis to the transplanted tumors in this experiment than in the previous one.

[5] = daily (1 mg/day) IV injection, nude mice carrying human tumor xenografts; cited from earlier work
tumors = conditions: intravenous infusion, cited from earlier work
[6] = cited from earlier work

SMILES: COc1ccc(C[C@@H](C)[C@@H](C)Cc2ccc(OC)c(OC)c2)cc1OC [M4N, tetra-O-methyl nordihydroguaiaretic acid]
- TUNEL-positive cell death (67NR cells): more cell death in 67NR cells than 4T1 cells
- cell growth (MTT) at 20 μM (4T1 cells; 4T1, 20 μM): significant effect of the drug to reduce cell growth
- concentration at which cell growth stopped (4T1 cells; 4T1, MTT): 80 µM
- time after treatment at which effect on cell growth was evident (4T1 cells; 4T1, MTT): 42 h
- cell growth (MTT) (4T1 cells; 4T1, different concentrations of M4N): reduced the cell growth of 4T1 cells depending on the concentration of the drug
- total Akt expression [1]: not changed much
- expression of phosphorylated PDK (Ser241), Akt (Ser473), PRAS40 (Thr246), Raf (Ser259), MEK (Ser217/221) ([1]; M4N 80 μM, Desferoxamine 75 or 150 μM): not much effect
- caspase-9 activation (cleavage) (caspase-9): slightly further augmented
- amount of phosphorylated PKCδ at Thr505 (PKCδ [2]): induced phosphorylation
- amount of phosphorylated PKCδ at Thr505 (PKCδ [3]): induced phosphorylation
- TUNEL-positive cell death [4]: very small
- mice with lung metastasis lesions (LNCaP tumors; combination groups at 80 days after tumor implantation): 2 out of 4
- time after implantation by which all mice died (LNCaP tumors; mouse, in vivo): ≤ 33 days
- M4N level accumulated in blood and tumors [5]: above 1 mM
- disease stabilization in patients (tumors; Phase I/II): long term stabilization of disease in some patients
- tumor shrinkage in patients (tumors): tumor shrinkage has rarely been seen
- toxic effects after oral administration ([6]; mouse, in vivo, po): essentially no toxic effects
- M4N concentration retained in mouse organs ([6]; oral administration, short term and long term feeding): ≤ 906 μg/g of tissue
